From article PMC6155852, “Oral Administration of the Japanese Traditional Medicine Keishibukuryogan-ka-yokuinin Decreases Reactive Oxygen Metabolites in Rat Plasma: Identification of Chemical Constituents Contributing to Antioxidant Activity” (Molecules : A Journal of Synthetic Chemistry and Natural …, 2017)
Where “and” joins values, the source holds several entries; their conditions need not be identical. Equal values may be shown once. Read-outs that look alike come from different tables or passages of the source.

Columns and labels:
[1] = Lipid hydroperoxide (LPO) generation assay (linoleic acid, Fenton reaction); assay type: biochemical
Protocol: Antioxidant assays using linoleic acid with a purity of 98.0% (Wako Pure Chemical Ind.) were performed using a described protocol with modifications. Briefly, 20 μL of 1% linoleic acid in methanol, 20 μL of 20 mmol/L ferrous chloride in water, 20 μL of test sample in DMSO, and 150 μL of a mixed solution (1:1) of methanol and 20 mmol/L phosphate buffer (pH 7.0) were added to 96-well polypropylene plates. After incubation at room temperature in the dark for 1 h, 10 μL of the reaction products were transferred to 200 μL of a methanol solution containing 39 mmol/L ammonium thiocyanate, 0.2 mmol/L ferrous chloride, and 0.01 mol/L hydrochloride. After incubation for 15 min, absorbance at 500 nm was measured using a microplate reader (Multiskan GO, Thermo Fisher Scientific Inc., Waltham, MA, USA). The concentration of lipid hydroperoxide (LPO) products was calculated conveniently using standard curves of serially-diluted linolein hydroperoxides (Cayman Chemical). The percentage of control was calculated using the following formula; (A − B)/(C − B) × 100, with A = test sample, B = linoleic acid alone, and C = vehicle control. Ascorbic acid was used as a reference agent.

[2] = ROS scavenging assay (hydrogen peroxide-dependent oxidation); assay type: biochemical; settings: for Antioxidant Activity (% of Control) ROS Scavenge: C.I. = complete inhibition
Protocol: Hydrogen peroxide-dependent oxidation tests were performed using Oxiselect™ In Vitro ROS/RNS Assay kits (Cellbiolab Inc., San Diego, CA, USA) according to the manufacturer’s protocol. Briefly, a test sample was mixed with hydrogen peroxide (final concentration: 2.5 μmol/L) and incubated for 5 min. A fluorescent reaction was started by the addition of a fluorescent probe (dichrolodihydrofluorescin-DiOxyQ) at room temperature. After incubation for 15 min, relative fluorescent units (RFUs) were measured at […] using a fluorescent plate reader (Infinite M200; Tecan Trading AG, Männedorf, Switzerland). The percentage of control was calculated using the following formula; (A − B)/(C − B) × 100, with A = test sample, B = fluorescent probe alone, and C = vehicle control. (+)-Ascorbic acid was used as a reference agent.

[3] = Plasma pharmacokinetics of KBGY constituents in rats after single oral administration of KBGY; assay type: in vivo, rat
Protocol: KBGY prepared in water was administered orally to 16 h fasted rats at a dose of 2 g/10 mL/kg (n = 3). […] Plasma was obtained by centrifugation at 1700× g for 15 min at 4 °C and stored at −80 °C until analysis.
For quantification of the dicarboxylic acid, 50 µL of standard solution, 100 µL of acetic acid (2%, v/v), and 650 µL of ethyl acetate were added to 200 µL of plasma samples, followed by mixing and centrifugation (7000× g, 5 min). The supernatants were collected and dried with a centrifugal evaporator and concentration system (CC-105; TOMY SEIKO Co., Tokyo, Japan). The residue was dissolved with 100 µL acetonitrile and 50 µL BF3/butanol solution; the dissolved solution was incubated for 1 h at 60 °C. The reaction was terminated by the addition of 50 µL of water and hexane, 150 µL of a saturated solution of sodium chloride, and 400 µL of hexane. The solution was vortexed for 2 min, and the supernatant was obtained by centrifugation (7000× g, 5 min). Liquid–liquid extraction was repeated twice. The corrected supernatant was dried with the centrifugal evaporator and concentration system. The dried residue was dissolved in 100 µL of acetonitrile containing 1 µg/mL of o-terphenyl (Tokyo Chemical Ind. Co.) as an internal standard (IS). Five microliters of the solution was then injected into the GC/MS system.
For quantification of volatile organic compounds (cinnamaldehyde, methyl cinnamate, 2-methoxycinnamaldehyde, mandelonitrile, salicylaldehyde, eugenol, cinnamyl alcohol, and 3-phenylpropyl acetate), 25 µL of standard solution, 25 µL of 2 µg/mL of 1,4-dibromobenzene (Tokyo Chemical Ind. Co.) as IS, and 500 µL of acetonitrile were added to 200 µL of plasma samples, followed by mixing and centrifugation (7000× g, 5 min). Five microliters of the supernatant was then injected into the GC/MS system.
For quantification of other compounds, 25 µL of standard solution, 25 µL of 2 ng/mL of atropine sulfate monohydrate (Wako Pure Chemical Ind.) or niflumic acid (Sigma-Aldrich) as IS, and 750 µL of methanol were added to 200 µL of plasma samples, followed by mixing and centrifugation (7000× g, 5 min). The supernatant was obtained and dried with the centrifugal evaporator and concentration system after 150 µL of propylene glycol (1%, v/v) was added to the supernatant. The dried residue was then dissolved in 60 μL of the HPLC mobile phase for each analytical method, and a 10 or 20 μL portion was injected into the LC/MS/MS system.
Plasma pharmacokinetic data were analyzed by noncompartmental modeling using Phoenix WinNonlin (version 6.3, Certara L.P., St. Louis, MO, USA) to determine various pharmacokinetic constants, including the maximum concentration (Cmax), time to maximum concentration (tmax), apparent elimination half-life (t1/2), and area under the plasma concentration-time curve from zero to last observation time (AUC0–last). The t1/2 was divided by loge^2/ke, where ke was the terminal elimination (at least three data points on the descending linear limb) rate constant.

[4] = 10 μmol/L, more than 100% = no activity
[5] = rat plasma, single oral KBGY 2 g/kg
[6] = in vivo, rat plasma, single oral KBGY 2 g/kg, read-out: AUC0–last
[7] = in vivo, rat plasma, single oral KBGY 2 g/kg, read-out: Cmax
[8] = in vivo, rat plasma, single oral KBGY 2 g/kg, read-out: tmax

IC50 ([2]; concentration-dependency, Figure 4) [µM]	SMILES	Antioxidant Activity (% of Control) LPO Generation ([1]; 1 μmol/L)	Antioxidant Activity (% of Control) LPO Generation [1, 4]	Antioxidant Activity (% of Control) LPO Generation ([1]; 10 μmol/L, more than 100% = no activity, listed as lariciresinol)	Antioxidant Activity (% of Control) ROS Scavenge ([2]; 1 μmol/L)	anti-ROS activity ([2]; 10 μmol/L)	Antioxidant Activity (% of Control) ROS Scavenge [2, 4]	AUC(0-t) ([3]; rat, in vivo, po, 2 g/kg) [ng·h/mL]	Cmax ([3]; rat, in vivo, po, 2 g/kg)	Tmax ([3]; rat, in vivo, po, 2 g/kg) [h]	Antioxidant Activity (% of Control) LPO Generation ([1]; 10 μmol/L, more than 100% = no activity, listed as lyoniresinol)	AUC0–last [3, 5] [ng·h/mL]	Tmax [3, 5] [h]	t1/2 [3, 5] [h]	AUC(0-t) [3, 6] [ng·h/mL]	Cmax [3, 7]	Tmax [3, 8] [h]	half-life ([3]; rat, in vivo, po, 2 g/kg) [h]	half-life ([3]; in vivo, rat plasma, single oral KBGY 2 g/kg, read-out: t1/2 (converted)) [h]
0.561	COc1cc(C[C@H]2CO[C@H](c3ccc(O)c(OC)c3)[C@H]2CO)ccc1O [Lariciresinol]	98.3 ± 1.4 % of Control	79.5 ± 1.9 % of Control	less than 80 % of Control	C.I.	strong anti-ROS activity	C.I.	9.84	1.68 ng/mL and 5 nM	4	–	–	–	–	–	–	–	–	–
–	COc1cc([C@@H]2c3c(cc(OC)c(O)c3OC)C[C@H](CO)[C@H]2CO)cc(OC)c1O [Lyoniresinol]	96.8 ± 2.9 % of Control	57.4 ± 1.6 % of Control	–	89.3 ± 2.0 % of Control	strong anti-ROS activity	C.I.	–	–	–	less than 80 % of Control	0.3	1	11.4	–	–	–	–	–
–	N#CC(O)c1ccccc1 (stereo not drawn) [Mandelonitrile]	–	104.6 ± 1.2 % of Control	–	–	–	99.7 ± 0.6 % of Control	–	–	–	–	–	–	–	251	165 ng/mL and 1.24 µM	1	–	–
–	C[C@@]12C[C@@]3(O)O[C@@H](O1)[C@]1(COC(=O)c4ccccc4)[C@H]3C[C@@]12O[C@@H]1O[C@H](CO)[C@@H](O)[C@H](O)[C@H]1O [Paeoniflorin]	–	92.7 ± 0.9 % of Control	–	–	–	100.2 ± 1.4 % of Control	299	80.2 ng/mL and 167 nM	–	–	–	0.5	–	–	–	–	2.72	–
–	N#C[C@H](O[C@@H]1O[C@H](CO)[C@@H](O)[C@H](O)[C@H]1O)c1ccccc1 [Prunasin]	–	97.9 ± 3.3 % of Control	–	–	–	102.2 ± 1.1 % of Control	–	–	–	–	–	–	–	3700	1450 ng/mL and 4.91 µM	1	–	1.16
–	C=C(CC[C@@H](C(=O)O)[C@H]1[C@H](O)C[C@@]2(C)C3=C(CC[C@]12C)[C@@]1(C)CC[C@H](O)C(C)(C)[C@@H]1CC3)C(C)C [Tumulosic acid]	–	99.4 ± 2.3 % of Control	–	–	–	105.9 ± 2.1 % of Control	700	200 ng/mL and 411 nM	0.5	–	–	–	–	–	–	–	4.66	–
